Data as given in PMC4847154, “Sticky swinging arm dynamics: studies of an acyl carrier protein domain from the mycolactone polyketide synthase” (Biochemical Journal, 2016).

Tests used:
[1] = target: T1, mACP9 (ACP domain from MLSA2, module 9 of the mycolactone PKS) (Mycobacterium ulcerans, UniProt Q6MZA5); test: circular dichroism thermal denaturation; type: binding; conditions: absolute Tm
T1 construct: excised ACP domain, residues 2050-2140; N-terminal His6-tag cleaved by thrombin leaving GSHM; E. coli Tuner(DE3); monomer; Ppant attachment at Ser2096

[2] = target: T1, mACP9 (ACP domain from MLSA2, module 9 of the mycolactone PKS); test: solution NMR structure; type: binding; conditions: covalent at Ser2096; nonpolar pocket between helix α2 and turns α2′ and α3′; phosphate buffer pH 7.5, 283 K

`CC(C)(COP(=O)(O)O)[C@@H](O)C(=O)NCCC(=O)NCCS` [holo, 4′-phosphopantetheine] showed a Tm ([1]; covalent at Ser2096 (holo form), 20 mM sodium hydrogen phosphate, 50 mM NaF, pH 7.5, apo reference in the same sentence) of 59 °C.
With `CCCCCCCC(=O)SCCNC(=O)CCNC(=O)[C@H](O)C(C)(C)COP(=O)(O)O` [octanoyl, octanoyl-phosphopantetheine group] the Tm ([1]; covalent at Ser2096 (octanoyl-Ppant), buffer as above, apo and holo references in the same sentence) was 57 °C and the “solution NMR structure” value [2] was “final ensemble for octanoyl-mACP9 were deposited in the Protein Data Bank under ID code 5HV8”.
Compound “hexanoyl-mACP9 (hexanoyl-phosphopantetheine group)” has a Tm ([1]; covalent at Ser2096 (hexanoyl-Ppant), buffer as above, apo and holo references in the same sentence) of 58 °C.
